Assay results taken from patent US20260216355A1, “ANTIBODY-DRUG CONJUGATE FROM N-OXYCYCLOALKYL SUBSTITUTED CAMPTOTHECIN DERIVATIVE” (priority 2022, published 2026).

Assays:
[1] = system: lung cancer cells NCI-H1975; assay: In vitro inhibitory activity of ADC against tumor cell growth (CCK-8), NCI-H1975; type: cell-based, Human; details: 6 days incubation
Text: (§1) Method for in vitro inhibitory activity assay of ADC: Human esophageal cancer cells OE-33, lung cancer cells NCI-H1975, and breast cancer cells MDA-MB-231 used for activity assays were respectively cultured in RPMI1640 (Cellmax), RPMI1640 (Cellmax), and DMEM (Cellmax) media containing 10% fetal bovine serum (FBS, Cellmax) to the exponential growth phase. After trypsinization, the cells were centrifuged, and the supernatant was discarded. The cells were resuspended with media and diluted to 3×10^4 cells/mL, 0.5×10^4 cells/mL and 1.5×10^4 cells/mL respectively. Then, 100 μL of each cell suspension was added to a 96-well cell culture plate, and the plate was returned to an incubator at 37° C. with 5% CO2 for overnight culture. The next day, the ADC to be tested was diluted to 2000 nM, 400 nM, 80 nM, 16 nM, 3.2 nM, 0.64 nM, 0.128 nM, and 0.026 nM using culture medium. The diluted ADC was added to a 96-well cell culture plate at 100 μL per well, with 3 replicates set for each concentration. For the negative control without ADC and the blank control, 100 μL of culture medium was added to each well. After the sample addition was finished, the plate was returned to the incubator at 37° C. with 5% CO2 for further incubation for 6 days. Upon completion of incubation, the cell culture plate was removed, and the medium in the plate was aspirated using a pipette. 100 μL of medium containing 10% CCK-8 was added to each well, followed by incubation at 37° C. for 3 h. After incubation, the plate was removed, protected from light, placed in a microplate reader, and the absorbance was measured at a test wavelength of 450 nm with a reference wavelength of 630 nm. Based on the absorbance values, the IC50 (Table 1) was calculated using four-parameter regression in GraphPad. The corresponding ADC drug containing Dxd was used as a positive control drug, which has the following structure: […]

[2] = system: breast cancer cells MDA-MB-231; assay: In vitro inhibitory activity of ADC against tumor cell growth (CCK-8), MDA-MB-231; type: cell-based, Human; details: MDA-MB-231 cells, 6 days incubation
Text: as §1

[3] = system: Human esophageal cancer cells OE-33; assay: In vitro inhibitory activity of ADC against tumor cell growth (CCK-8), OE-33; type: cell-based; details: OE-33 cells, 6 days incubation
Text: as §1

| Substance | IC50 [1] [nM] | IC50 [2] [nM] | IC50 [3] [nM] |
| --- | --- | --- | --- |
| 7-(N-(IP140B-Ac-PEG2-Gly-Lys-PABC), N-((S)-tetrahydrofuran-3-yl)amino)ethyl-10,11-methylenedioxycamptothecin [ADC 16] | 50 to 500 | 50 to 500 | 50 to 500 |
| 7-(N-(IP140B-Qx-PEG2-Gly-Lys-PABC), N-((R)-tetrahydrofuran-3-yl)amino)ethyl-10,11-methylenedioxycamptothecin [ADC 12] | < 5 | 5 to 50 | 5 to 50 |
| 7-(N-(IP140B-Qx-PEG2-Gly-Lys-PABC), N-(tetrahydropyran-4-yl)amino)ethyl-10,11-methylenedioxycamptothecin [ADC 10] | < 5 | < 5 | 5 to 50 |
| 7-(N-(HS627-AcPEG2-Gly-Lys-PABC), N-(tetrahydropyran-4-yl)amino)ethyl-10,11-methylenedioxycamptothecin [ADC 5] | 50 to 500 | 50 to 500 | > 250 |
| 7-(N-(IP140B-Ac-PEG2-Gly-Lys-PABC), N-((R)-tetrahydrofuran-3-yl)amino)ethyl-10,11-methylenedioxycamptothecin [ADC 14] | 5 to 50 | 5 to 50 | 5 to 50 |
| 7-(N-(HS627-Ac-PEG2-Gly-Lys-PABC), N-((R)-tetrahydrofuran-3-yl)amino)ethyl-10,11-methylenedioxycamptothecin [ADC 13] | 50 to 500 | 50 to 500 | 50 to 500 |
| 20-O-(IP140B-AcPEG2-Gly-Val-Ala-Gly-NHNHC)-7-(N-(tetrahydropyran-4-yl)amino)ethyl-10,11-methylenedioxycamptothecin [ADC 18] | < 5 | < 5 | < 5 |
| 7-(N-(HS627-mc-Val-Cit-PABC), N-(tetrahydropyran-4-yl)amino)ethyl-10,11-methylenedioxycamptothecin [ADC 1] | 5 to 50 | 50 to 500 | 5 to 50 |
| 20-O-(IP140B-Ac-PEG4-daP-NHNHC)-7-(N-(tetrahydropyran-4-yl)amino)ethyl-10,11-methylenedioxycamptothecin [ADC 20] | < 5 | < 5 | < 5 |
| 7-(N-(IP140B-AcPEG2-Gly-Lys-PABC), N-(tetrahydropyran-4-yl)amino)ethyl-10,11-methylenedioxycamptothecin [ADC 6] | 5 to 50 | 50 to 500 | 5 to 50 |
| 7-(N-(IP140B-AcPEG4-Gly-Lys-PABC), N-(tetrahydropyran-4-yl)amino)ethyl-10,11-methylenedioxycamptothecin [ADC 8] | 50 to 500 | 50 to 500 | 50 to 500 |
| 7-(N-(HS627-mPEG2-Gly-Lys-PABC), N-(tetrahydropyran-4-yl)amino)ethyl-10,11-methylenedioxycamptothecin [ADC 3] | 5 to 50 | 5 to 50 | 5 to 50 |
| 7-(N-(IP140B-mc-Val-Cit-PABC), N-(tetrahydropyran-4-yl)amino)ethyl-10,11-methylenedioxycamptothecin [ADC 2] | < 5 | 5 to 50 | 5 to 50 |
| 7-(N-(HS627-AcPEG4-Gly-Lys-PABC), N-(tetrahydropyran-4-yl)amino)ethyl-10,11-methylenedioxycamptothecin [ADC 7] | 50 to 500 | 50 to 500 | > 250 |
| 7-(N-(IP140B-mPEG2-Gly-Lys-PABC), N-(tetrahydropyran-4-yl)amino)ethyl-10,11-methylenedioxycamptothecin [ADC 4] | 5 to 50 | 5 to 50 | 5 to 50 |
